In US20030190671A1, “Use of metabolic phenotyping in individualized treatment with amonafide” (McGill University, priority 2001, published 2003):
Read-outs that look alike come from different tables or passages of the source.

Legend:
[1] = mice, dogs, and rats; cited from earlier work
[2] = system: non-small cell lung cancer, prostate cancer and breast cancer; conditions: cited from earlier work
[3] = Stability of reconstituted amonafide solution; assay type: physicochemical
Method: Intact vials should be stored under refrigeration (2-8° C.). […] However, the reconstituted solution contains no antibacterial preservatives and should be used immediately. It is advised that the reconstituted product be discarded 8 hours after initial entry.
Add the appropriate dose of amonafide to a bag of 100 mL of normal saline prior to administration. Amonafide is very unstable in dextrose-containing solutions and these should not be used for reconstitution or for administration.

[4] = dogs; single-bolus and daily for 5 days schedules, highest doses administered; cited from earlier work
M5076 sarcoma cell line = conditions: cited from earlier work
NAT2 = conditions: cancer individuals phenotyped with caffeine; cited from earlier work
[5] = human; cited from earlier work
[6] = cited from earlier work
[7] = system: p388 leukemia cells lines; conditions: cited from earlier work
CYP1A2 = molecular target: T1, CYP1A2 (Homo sapiens, UniProt P05177); conditions: in vitro; cited from earlier work
T1 sequence (P05177 1-516): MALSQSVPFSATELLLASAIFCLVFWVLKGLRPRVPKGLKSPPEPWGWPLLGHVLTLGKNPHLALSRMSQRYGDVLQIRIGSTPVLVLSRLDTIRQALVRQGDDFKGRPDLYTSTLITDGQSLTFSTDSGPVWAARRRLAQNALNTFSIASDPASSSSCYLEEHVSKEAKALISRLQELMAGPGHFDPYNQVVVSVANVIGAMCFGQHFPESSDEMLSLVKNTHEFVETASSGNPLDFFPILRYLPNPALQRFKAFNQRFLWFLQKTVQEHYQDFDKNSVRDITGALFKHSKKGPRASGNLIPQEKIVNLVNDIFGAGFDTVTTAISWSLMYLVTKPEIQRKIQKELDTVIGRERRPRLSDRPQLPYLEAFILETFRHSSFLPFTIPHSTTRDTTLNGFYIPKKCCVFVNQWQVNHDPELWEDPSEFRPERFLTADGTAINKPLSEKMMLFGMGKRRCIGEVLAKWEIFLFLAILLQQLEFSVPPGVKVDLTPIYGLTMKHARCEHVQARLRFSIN

B16 melanoma = conditions: cited from earlier work
[8] = system: L1210 leukemia cells lines; conditions: cited from earlier work

For `CN(C)CCN1C(=O)c2cccc3cc(N)cc(c23)C1=O` [amonafide], which preclinical toxicity [1] is on record?
Its preclinical toxicity is “reversible hematopoietic, gastrointestinal, renal and hepatic toxicity”.

What about the “antitumor activity in non-small cell lung cancer, prostate cancer and breast cancer” value ([2]; human, in vivo) of the same molecule?
The value was “antitumor activity”.

What about the “most common dose-limiting side effect” value ([2]; human, in vivo) of the same molecule?
The value was “granulocytopenia”.

And the “neutropenia, day of nadir counts” value ([2]; previous clinical studies)?
The value was 12 to 15 days.

And the “neutropenia, day of recovery” value ([2]; previous clinical studies)?
The value was about 21 days.

And the “stability in dextrose-containing solutions” value [3]?
Its value is “very unstable”.

What about the “decomposition of reconstituted solution” value ([3]; reconstituted in normal saline, over 14 days at room temperature or under refrigeration) of the same molecule?
The value was “no decomposition”.

And the neurotoxicity [4]?
The neurotoxicity was “signs indicative of neurotoxicity”.

What about the “activity against M5076 sarcoma” value (M5076 sarcoma cell line) of the same molecule?
The value was “significant activity”.

And the “area under the plasma concentration-time curve, fast vs. slow acetylators” value (NAT2)?
Its value is “significantly greater in fast acetylators”.

What about the “toxicity (myelosuppression), fast vs. slow acetylators” value (NAT2) of the same molecule?
Its value is “fast acetylators had greater toxicity than slow acetylators”.

What about the “binding to body tissues” value [5] of the same molecule?
Its value is “highly bound to body tissues”.

And the volume of distribution [5]?
Its volume of distribution is “large”.

What about the “maximum tolerated dose (MTD)” value ([6]; bolus dose, OSU study (Leiby et al.)) of the same molecule?
Its value is 1125 mg/m^2.

What about the “maximum tolerated dose (MTD)” value ([6]; daily times five every 21 days, MDA (Legha et al.)) of the same molecule?
Its value is 400 mg/m^2.

What about the “maximum tolerated dose (MTD)” value ([6]; daily times five every 21 days, OSU (Leiby et al.)) of the same molecule?
Its value is 250 mg/m^2.

What about the dose-limiting toxicity ([6]; single bolus and daily times five schedules) of the same molecule?
Its dose-limiting toxicity is “myelosuppression”.

And the “maximum tolerated dose (MTD)” value ([6]; single bolus, UTSA (Saez et al.))?
Its value is 800 mg/m^2.

And the “activity against p388 leukemia” value [7]?
Its value is “significant activity”.

What about the “substrate of CYP1A2” value (CYP1A2) of the same molecule?
Its value is “substrate for CYP1A2”.

And the “activity against B16 melanoma” value (B16 melanoma)?
The value was “significant activity”.

What about the “activity against L1210 leukemia” value [8] of the same molecule?
The value was “significant activity”.
